From patent US12115182B2, “Adenosine A2A agonists for the treatment of cytokine storm syndrome” (priority 2021, dated 2024)
“Also recorded” adds a separate entry of the source.

How the values were obtained:
[1] = test system: lung transplant recipients; assay: Regadenoson infusion in lung transplant recipients: clinical outcomes, hemodynamics, safety; type: in vivo
Experimental: The rational for dose selection was published in our previous publication (LAU et al., J Heart Lung Transplant, (2020), 39:563-570. We enrolled 4 additional lung transplantation patients that were treated with regadenoson at 1.44 ug/kg/hour for 12 hours. Our previous publication, infusion of regadenoson (1.44 ug/kg/hour for 12 hours) was safe in 10 lung transplantation patients. In the lung transplantation population, the median peak plasma levels of regadenoson infused were 1.68 ng/ml (range 1.2 to 1.9 ng/ml). Based on this preliminary result, we modified our protocol to a high dose infusion at the 2.88 ug/kg/hour for 12 hours in the last three lung transplantation recipients. FDA, NIH/NHLBI designated DSMB and institutional IRB approved our modification. The regadenoson infusion started at the time of skin incision, continued throughout the transplant procedure and into the immediate postoperative period for a total duration of 12 hours. Enrollment of bilateral lung transplant control patients
Primary end-points included dose-limiting toxicities and 30-day mortality. Secondary outcomes included PGD scores evaluated at 24, 48, and 72 hours, ICU length of stay, hospital length of stay, need for post-transplant extracorporeal membrane oxygenation, duration of mechanical ventilation post-operatively, and 12-month survival. Clinical parameters including blood pressure, heart rate, mean arterial pressure, pulmonary arterial pressure, were monitored and collected. Continuous variables are listed as mean and standard deviation, whereas categorical variables are presented as counts.
Statistical differences of cytokine/chemokines, heart rates and blood pressures between groups were determined by two-way ANOVA followed by Tukey's multiple comparison test (GraphPad Prism 9.0). The PGD scores were analyzed by chi-squared test. The intubation times and hospital LOS, ICU LOS were analyzed by ANOVA of log and Kruskal-Wallis. Data was reported as means±SD. P value equal or less than 0.05 was considered significant.

MHS cells = assay: RAGE shedding in alveolar macrophages (MHS): Western blot of sRAGE, immunofluorescence of RAGE; type: cell-based, mouse; details: PMA-treated MHS cells; GM6001 2 nM, regadenoson 100 nM, ATL146e 10 nM
[2] = day 7, Alzet minipump 80 μg/ml in PBS
MMP-9 = assay: Gelatin zymography of plasma MMP-9 in lung transplant recipients; type: in vivo, human; details: low and high dose vs control, 30 minutes after 1st and 2nd lung reperfusion
Experimental: (§1) We designed this trial mainly as a Phase I safety and feasibility study that would allow an optimal infusional dose to be determined based on dose-limiting toxicities identified in lung transplant recipients. We also evaluated the potential efficacy by clinical outcomes and the lab evaluation of various cytokines/chemokines, DAMPs and enzymes. Blood was drawn for cytokine/chemokine, DAMPs and MMP-2/-9 analysis at the following different timepoints: 1) before infusion, 2) 15 minutes before reperfusion of the 1st lung, 3) 30 minutes after reperfusion of 1st lung, 4) 30 minutes after reperfusion of 2nd lung, and 5) 6 hours after reperfusion of 1st lung. HMGB1 and sRAGE levels were measured using a customized human Cytokine/Chemokine multiplex immunoassay (Millipore Sigma, Burlington, MA) at The University of Virginia Flow Cytometry Core (RRID: SCR_01 7829) as previously described (LAU et al., J Heart Lung Transplant, (2020), 39:563-570).
Plasma samples were collected as described above. Protein concentrations were determined with BCA protein assay. Equal amounts of proteins (20 μg) were loaded in each lane for MMP-2 and-9 gelatinolytic activity detection by use of gelatin zymography as our previous publications (ZHAO et al., J Biol Chem, (2003), 278:15056-15064; ZHAO et al., Am J Physiol Lung Cell Mol Physiol, (2011), 300: L718-729).

[3] = test system: plasma proinflammatory cytokines/chemokines; assay: Luminex plasma cytokines/chemokines in regadenoson-treated COVID-19 patients; type: in vivo, human
[4] = test system: soluble receptor for advanced glycation end-products (sRAGE); assay: Plasma sRAGE in lung transplant recipients; type: in vivo, human
Experimental: Blood was drawn for cytokine/chemokine, damage associated molecular patterns (DAMPs) at the following different timepoints: 1) before infusion (baseline), 2) 15 minutes before reperfusion of the 1st lung, 3) 30 minutes after reperfusion of 1st lung, 4) 30 minutes after reperfusion of 2nd lung, and 5) 6 hours after reperfusion of 1st lung.
The cytokines/chemokines, HMGB1 and sRAGE were determined at The University of Virginia Flow Cytometry Core (RRID: SCR 017829) as previously described (LAU et al., J Heart Lung Transplant, (2020), 39:563-570). The customized 11-plex cytokine panel detects IL-1, IL-2, IL-6, IL-7, IL-8, IL-10, IL-12P40, IL-12P70, IL-17, TNFa, and IFN-γ (Millipore Sigma, Burlington, MA).
as §1, with “Blood was drawn for cytokine/chemokine, DAMPs and MMP-2/-9 analysis at the following different timepoints: 1) before infusion, 2) 15 minutes before reperfusion of the 1st lung, 3) 30 minutes after reperfusion of 1st lung, 4) 30 minutes after reperfusion of 2nd lung, and 5) 6 hours after reperfusion of 1st lung.” left out

Compound: CNC(=O)c1cnn(-c2nc(N)c3ncn([C@@H]4O[C@H](CO)[C@@H](O)[C@H]4O)c3n2)c1 [Regadenoson]
- PGD scores at 24 hours post transplantation ([1]; 1.44 ug/kg/h vs control patients, p=0.024): significantly improved
- drug related serious adverse events or dose limiting toxicities ([1]; 14 low dose-treated (1.44 ug/kg/h) and 3 high dose-treated (2.88 ug/kg/h) recipients): no drug related serious adverse events or dose limiting toxicities were observed
- PGD scores at 24 hours, 48 and 72 hours ([1]; both 1.44 and 2.88 ug/kg/h groups vs control patients): also improved when compared with control patients but did not reach significance
- blood pressure, heart rate, mean arterial pressure and pulmonary arterial pressure ([1]; during regadenoson infusion for 12 hours, P>0.05): did not significantly alter
- seizure ([1]; one subject, may not directly relate to regadenoson infusion): A seizure was observed at the 36 hours post regadenoson infusion in one of the subjects
- hospital length of stay (LOS) and ICU LOS ([1]; vs control patients): reduced, but not significantly altered
- intubation time ([1]; vs control patients): trended to decrease
- PMA-induced shedding of cell membrane-anchored RAGE (MHS cells): suppressed the shedding of RAGE; also recorded: partially inhibited
- mean +/-SEM plasma level for Regadenoson [2]: 7.6 ± 1.3 ng/mL
- gelatinolytic activity of MMP-9 in plasma (MMP-9): significantly decreased
- measured cytokines reduced ([3]; 14-plex Luminex panel, after 4 hours of regadenoson infusion): Twelve of the fourteen
- levels of 13 pro-inflammatory cytokines, ratio over baseline ([3]; 30 minutes after start of RA infusion): very little effect
- pro-inflammatory cytokines reduced, ratio over baseline ([3]; 4.5 hours after start of RA infusion): 11 of 13
- transplantation-induced plasma levels of sRAGE ([4]; 30 minutes post 1st lung reperfusion (low dose) and 30 minutes post 2nd lung reperfusion (low and high dose), P<0.0001 vs control): significantly diminished; also recorded: significantly reduced
- plasma sRAGE level ([4]; high dose, 30 minutes post the 1st lung reperfusion, P=0.0656): decreased in trend
